Experimental data: ChEMBL document CHEMBL3797088, “Discovery and structure activity relationship study of novel indazole amide inhibitors for extracellular signal-regulated kinase1/2 (ERK1/2)” (Bioorg Med Chem Lett, 2016)
Calls of active or inactive are those of the source. No cut-off for these calls is given here.

Legend:
[1] = target: Mitogen-activated protein kinase 1 (Homo sapiens, UniProt P28482); assay: Inhibition of human recombinant GST-tagged ERK2 expressed in Escherichia coli using ser/thr 3 Peptide as substrate preincubated for 1 hr measured after 1 hr by Z-LYTE assay
Sequence of Mitogen-activated protein kinase 1 (P28482 whole entry): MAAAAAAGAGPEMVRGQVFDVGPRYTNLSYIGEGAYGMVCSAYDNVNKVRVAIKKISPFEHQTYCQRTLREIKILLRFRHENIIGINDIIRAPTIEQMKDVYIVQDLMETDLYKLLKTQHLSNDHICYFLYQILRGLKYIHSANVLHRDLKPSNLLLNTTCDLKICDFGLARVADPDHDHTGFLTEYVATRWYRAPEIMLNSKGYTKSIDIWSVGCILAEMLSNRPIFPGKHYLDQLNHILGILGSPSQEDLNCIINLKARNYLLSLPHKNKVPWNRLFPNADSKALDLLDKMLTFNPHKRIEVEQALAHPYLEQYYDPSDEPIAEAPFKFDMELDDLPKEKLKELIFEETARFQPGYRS

[2] = test system: HT-29; assay: Antiproliferative activity against human HT-29 cells harboring B-RAF V600E mutant after 72 hrs by SRB assay; format: functional, cell-based; details: HT-29, 72 h
[3] = target: Mitogen-activated protein kinase 3 (Homo sapiens, UniProt P27361); assay: Inhibition of human recombinant GST-tagged ERK1 expressed in Escherichia coli using ser/thr 3 Peptide as substrate preincubated for 1 hr measured after 1 hr by Z-LYTE assay
Sequence of Mitogen-activated protein kinase 3 (P27361 whole entry): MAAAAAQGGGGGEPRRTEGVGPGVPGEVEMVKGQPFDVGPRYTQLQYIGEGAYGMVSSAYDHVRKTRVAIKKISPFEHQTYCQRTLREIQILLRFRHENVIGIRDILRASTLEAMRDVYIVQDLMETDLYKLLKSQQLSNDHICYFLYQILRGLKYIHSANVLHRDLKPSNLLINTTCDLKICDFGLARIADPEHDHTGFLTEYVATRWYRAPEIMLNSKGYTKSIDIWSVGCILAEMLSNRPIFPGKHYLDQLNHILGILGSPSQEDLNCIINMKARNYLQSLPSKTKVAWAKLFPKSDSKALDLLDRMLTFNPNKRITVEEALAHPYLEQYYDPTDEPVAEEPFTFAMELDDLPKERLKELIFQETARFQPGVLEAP

[4] = target: Mitogen-activated protein kinase; ERK1/ERK2 (Homo sapiens) (UniProt P27361+P28482); assay: Inhibition of ERK1/ERK2 in human HT-29 cells assessed as reduction in p90RSK phosphorylation after 2 hrs by Western blot analysis; format: cell-based
Sequence of Mitogen-activated protein kinase; ERK1/ERK2 (Homo sapiens) (P27361 whole entry, looked up): as the sequence (P27361 whole entry) above
Sequence of Mitogen-activated protein kinase; ERK1/ERK2 (Homo sapiens) (P28482 whole entry, looked up): as the sequence (P28482 whole entry) above

[5] = target: Dual specificity mitogen-activated protein kinase kinase; MEK1/2 (Homo sapiens) (UniProt P36507+Q02750); assay: Inhibition of ERK phosphorylation in human HT-29 cells after 2 hrs by Western blot analysis; format: cell-based
Sequence of Dual specificity mitogen-activated protein kinase kinase; MEK1/2 (Homo sapiens) (P36507 whole entry, looked up): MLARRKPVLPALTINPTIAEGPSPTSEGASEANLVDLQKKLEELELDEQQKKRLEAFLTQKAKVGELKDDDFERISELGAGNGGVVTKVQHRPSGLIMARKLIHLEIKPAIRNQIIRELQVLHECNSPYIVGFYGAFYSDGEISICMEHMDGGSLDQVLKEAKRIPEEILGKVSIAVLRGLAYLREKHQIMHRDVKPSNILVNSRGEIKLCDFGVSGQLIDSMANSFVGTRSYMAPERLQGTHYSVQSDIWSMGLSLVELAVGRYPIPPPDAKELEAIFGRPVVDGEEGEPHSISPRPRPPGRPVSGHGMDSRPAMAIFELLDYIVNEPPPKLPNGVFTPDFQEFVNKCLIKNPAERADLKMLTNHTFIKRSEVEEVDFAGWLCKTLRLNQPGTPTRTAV
Sequence of Dual specificity mitogen-activated protein kinase kinase; MEK1/2 (Homo sapiens) (Q02750 whole entry, looked up): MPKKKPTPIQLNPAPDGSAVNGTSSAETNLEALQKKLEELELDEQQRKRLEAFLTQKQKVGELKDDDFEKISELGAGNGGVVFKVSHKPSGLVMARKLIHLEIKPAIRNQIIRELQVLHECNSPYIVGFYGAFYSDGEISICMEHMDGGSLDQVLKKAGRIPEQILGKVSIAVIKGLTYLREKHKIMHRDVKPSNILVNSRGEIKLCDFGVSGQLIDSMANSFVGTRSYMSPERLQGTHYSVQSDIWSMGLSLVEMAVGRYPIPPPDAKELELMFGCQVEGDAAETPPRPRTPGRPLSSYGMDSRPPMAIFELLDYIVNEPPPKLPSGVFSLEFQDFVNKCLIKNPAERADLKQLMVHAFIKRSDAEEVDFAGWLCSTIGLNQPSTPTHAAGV

[6] = Apparent permeability in human Caco2 cells assessed as Fabs after 95 mins by LC-MS/MS analysis; format: ADME, cell-based; details: caco-2, 95 min
[7] = AUC (0 to 24 hrs) in rat at 10 mg/kg, po; format: ADME, organism-based; parameters: time < 24 hr, dose 10 mg/kg, route oral; details: in vivo
[8] = AUC (0 to 24 hrs) in mouse at 5 mg/kg, po; format: ADME, organism-based; parameters: dose 5 mg/kg, time < 24 hr, route oral; details: in vivo
[9] = Oral bioavailability in mouse at 5 mg/kg; format: ADME, organism-based; details: in vivo
[10] = Clearance in mouse at 5 mg/kg, po or 1 mg/kg, iv; format: ADME, organism-based; details: in vivo
[11] = target: Hepatocyte growth factor receptor (Homo sapiens, UniProt P08581); assay: Inhibition of c-MET (unknown origin) by Z-LYTE assay
[12] = target: Insulin-like growth factor 1 receptor (Homo sapiens, UniProt P08069); assay: Inhibition of IGF1R (unknown origin) by Z-LYTE assay
[13] = target: ALK tyrosine kinase receptor (Homo sapiens, UniProt Q9UM73); assay: Inhibition of ALK (unknown origin) by Z-LYTE assay
[14] = target: Vascular endothelial growth factor receptor 1 (Homo sapiens, UniProt P17948); assay: Inhibition of FLT1 (unknown origin) by Z-LYTE assay
[15] = target: Tyrosine-protein kinase ABL1 (Homo sapiens, UniProt P00519); assay: Inhibition of ABL (unknown origin) by Z-LYTE assay
Sequence of Tyrosine-protein kinase ABL1 (P00519 whole entry): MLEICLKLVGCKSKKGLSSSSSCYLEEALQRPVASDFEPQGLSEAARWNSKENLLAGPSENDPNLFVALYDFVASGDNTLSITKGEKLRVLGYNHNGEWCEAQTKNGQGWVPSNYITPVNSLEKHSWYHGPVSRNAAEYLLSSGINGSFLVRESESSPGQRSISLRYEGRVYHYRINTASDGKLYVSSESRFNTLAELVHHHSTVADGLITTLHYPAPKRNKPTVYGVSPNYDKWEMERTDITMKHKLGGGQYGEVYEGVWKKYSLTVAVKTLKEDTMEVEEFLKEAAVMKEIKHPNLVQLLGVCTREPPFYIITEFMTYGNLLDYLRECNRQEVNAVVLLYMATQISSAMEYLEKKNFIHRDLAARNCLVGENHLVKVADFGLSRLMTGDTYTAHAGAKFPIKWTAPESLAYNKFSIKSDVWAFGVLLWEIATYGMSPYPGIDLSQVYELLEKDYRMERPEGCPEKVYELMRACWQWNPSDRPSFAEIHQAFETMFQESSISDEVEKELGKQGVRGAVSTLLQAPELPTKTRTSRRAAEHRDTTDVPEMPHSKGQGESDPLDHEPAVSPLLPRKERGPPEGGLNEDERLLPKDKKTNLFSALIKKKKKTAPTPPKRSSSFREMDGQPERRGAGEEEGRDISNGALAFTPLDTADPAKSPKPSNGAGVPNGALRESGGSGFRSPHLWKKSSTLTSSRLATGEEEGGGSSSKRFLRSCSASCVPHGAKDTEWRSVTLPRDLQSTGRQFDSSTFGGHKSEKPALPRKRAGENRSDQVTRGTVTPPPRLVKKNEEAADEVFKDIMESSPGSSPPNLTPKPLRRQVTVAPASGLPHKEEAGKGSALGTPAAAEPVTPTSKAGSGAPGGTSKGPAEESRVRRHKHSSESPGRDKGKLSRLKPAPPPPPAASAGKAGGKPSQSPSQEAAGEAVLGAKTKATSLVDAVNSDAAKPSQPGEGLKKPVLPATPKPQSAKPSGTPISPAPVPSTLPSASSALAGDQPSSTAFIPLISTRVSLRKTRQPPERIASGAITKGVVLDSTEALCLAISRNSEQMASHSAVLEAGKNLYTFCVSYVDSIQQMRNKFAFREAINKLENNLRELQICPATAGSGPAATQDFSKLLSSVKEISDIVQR

[16] = target: Platelet-derived growth factor receptor beta (Homo sapiens, UniProt P09619); assay: Inhibition of PDGFRbeta (unknown origin) by Z-LYTE assay
Sequence of Platelet-derived growth factor receptor beta (P09619 whole entry): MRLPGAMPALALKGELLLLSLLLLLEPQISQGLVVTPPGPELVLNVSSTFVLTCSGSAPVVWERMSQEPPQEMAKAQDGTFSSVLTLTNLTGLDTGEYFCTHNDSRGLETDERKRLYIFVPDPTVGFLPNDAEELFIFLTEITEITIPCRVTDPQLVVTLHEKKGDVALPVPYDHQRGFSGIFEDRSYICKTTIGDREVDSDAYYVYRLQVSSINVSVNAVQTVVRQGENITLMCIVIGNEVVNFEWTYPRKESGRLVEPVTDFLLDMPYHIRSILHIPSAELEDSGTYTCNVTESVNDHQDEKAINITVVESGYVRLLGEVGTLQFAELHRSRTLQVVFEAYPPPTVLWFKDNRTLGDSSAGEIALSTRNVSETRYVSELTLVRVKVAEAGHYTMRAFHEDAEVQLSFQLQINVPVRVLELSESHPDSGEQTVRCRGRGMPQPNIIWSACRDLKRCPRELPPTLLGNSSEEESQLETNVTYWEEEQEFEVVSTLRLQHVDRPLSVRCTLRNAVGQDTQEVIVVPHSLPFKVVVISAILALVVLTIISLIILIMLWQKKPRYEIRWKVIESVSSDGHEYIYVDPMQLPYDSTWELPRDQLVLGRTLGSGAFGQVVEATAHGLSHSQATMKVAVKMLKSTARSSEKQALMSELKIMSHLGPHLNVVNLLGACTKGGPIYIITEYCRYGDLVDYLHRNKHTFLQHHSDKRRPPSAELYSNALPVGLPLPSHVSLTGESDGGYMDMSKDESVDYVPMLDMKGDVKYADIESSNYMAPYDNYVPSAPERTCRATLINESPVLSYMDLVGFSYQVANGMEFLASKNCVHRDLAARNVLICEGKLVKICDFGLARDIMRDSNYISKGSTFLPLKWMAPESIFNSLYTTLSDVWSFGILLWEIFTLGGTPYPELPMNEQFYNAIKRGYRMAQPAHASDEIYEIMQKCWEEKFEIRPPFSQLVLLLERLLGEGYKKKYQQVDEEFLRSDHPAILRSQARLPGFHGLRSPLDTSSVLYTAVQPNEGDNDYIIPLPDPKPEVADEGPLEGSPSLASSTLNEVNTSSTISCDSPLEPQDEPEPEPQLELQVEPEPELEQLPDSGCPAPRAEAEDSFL

[17] = target: Vascular endothelial growth factor receptor 2 (Homo sapiens, UniProt P35968); assay: Inhibition of KDR (unknown origin) by Z-LYTE assay
[18] = target: Proto-oncogene tyrosine-protein kinase receptor Ret (Homo sapiens, UniProt P07949); assay: Inhibition of RET (unknown origin) by Z-LYTE assay
[19] = target: Epidermal growth factor receptor (Homo sapiens, UniProt P00533); assay: Inhibition of EGFR (unknown origin) by Z-LYTE assay
[20] = target: Receptor tyrosine-protein kinase erbB-2 (Homo sapiens, UniProt P04626); assay: Inhibition of ERBB2 (unknown origin) by Z-LYTE assay
[21] = target: Proto-oncogene tyrosine-protein kinase Src (Homo sapiens, UniProt P12931); assay: Inhibition of c-Src (unknown origin) by Z-LYTE assay
Sequence of Proto-oncogene tyrosine-protein kinase Src (P12931 2-536 limits assumed): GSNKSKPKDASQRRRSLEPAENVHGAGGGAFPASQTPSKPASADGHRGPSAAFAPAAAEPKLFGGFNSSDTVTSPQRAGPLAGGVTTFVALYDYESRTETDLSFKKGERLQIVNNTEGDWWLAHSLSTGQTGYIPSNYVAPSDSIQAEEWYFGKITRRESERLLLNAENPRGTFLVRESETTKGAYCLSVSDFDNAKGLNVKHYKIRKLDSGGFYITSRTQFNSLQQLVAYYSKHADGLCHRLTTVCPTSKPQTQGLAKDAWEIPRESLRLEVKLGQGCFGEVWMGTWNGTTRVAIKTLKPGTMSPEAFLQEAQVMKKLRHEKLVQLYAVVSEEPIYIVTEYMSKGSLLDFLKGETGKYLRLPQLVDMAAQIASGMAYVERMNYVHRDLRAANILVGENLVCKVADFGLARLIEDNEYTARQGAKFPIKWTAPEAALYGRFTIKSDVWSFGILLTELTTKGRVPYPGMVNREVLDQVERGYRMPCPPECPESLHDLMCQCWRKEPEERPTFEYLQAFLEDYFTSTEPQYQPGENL

[22] = target: Ephrin type-A receptor 2 (Homo sapiens, UniProt P29317); assay: Inhibition of EPHA2 (unknown origin) by Z-LYTE assay
[23] = target: Fibroblast growth factor receptor 1 (Homo sapiens, UniProt P11362); assay: Inhibition of FGFR1 (unknown origin) by Z-LYTE assay

Structure (SMILES) | IC50 [1] [nM] | IC50 [2] [nM] | IC50 [3] [nM] | other results
CC(CNC(=O)c1ccc2[nH]nc(-c3ccncc3)c2c1)Oc1ccccc1 (stereo unspecified) | 38.6 | 6000 | 128 | 
O=C(NC(CO)c1cccc(Cl)c1)c1ccc2[nH]nc(-c3ccc(O)c(F)c3)c2c1 (stereo unspecified) | 32.9 | 2500 | 111 | 
O=C(NCc1ccccc1Cl)c1ccc2[nH]nc(-c3ccncc3)c2c1 | 31.3 | 2800 | 46.3 | 
Cc1cc(-c2n[nH]c3ccc(C(=O)NC(C)c4cccc(Cl)c4)cc23)cc(C)n1 (stereo unspecified) | 110 | 3800 |  | AUC(0-t) at 24 h [8]: 162 ng·h/mL; bioavailability [9]: 8%; clearance [10]: 42 mL/min/kg
O=C(NC(CO)c1cccc(Cl)c1)c1ccc2[nH]nc(C3CCOCC3)c2c1 (stereo unspecified) | 297 | 11500 |  | 
O=C(NCc1ccccc1)c1ccc2[nH]nc(-c3ccncc3)c2c1 | 50.6 | 13300 | 106 | 
C[C@H](NC(=O)c1ccc2[nH]nc(-c3ccncc3)c2c1)c1cccc(Cl)c1 | 469 | 7500 |  | 
O=C(NCc1c(Cl)cccc1Cl)c1ccc2[nH]nc(-c3ccncc3)c2c1 | 154 | 8400 |  | 
CC(NC(=O)c1ccc2[nH]nc(-c3cc(F)c(O)c(F)c3)c2c1)c1cccc(Cl)c1 (stereo unspecified) | 22.4 | 3300 | 32.3 | 
O=C(NCc1ccc(Cl)c(F)c1Cl)c1ccc2[nH]nc(-c3ccncc3)c2c1 | 11.9 | 1500 | 29.2 | 
Cc1cc(-c2n[nH]c3ccc(C(=O)NC(C)c4c(Cl)cncc4Cl)cc23)ccn1 (stereo unspecified) | 16.7 | 350 | 29.3 | IC50 [11]: > 1000 nM; IC50 [12]: > 1000 nM; IC50 [13]: > 1000 nM; IC50 [14]: > 1000 nM; IC50 [15]: > 1000 nM; IC50 [16]: > 1000 nM; IC50 [17]: > 1000 nM; IC50 [18]: > 1000 nM; IC50 [19]: > 1000 nM; IC50 [20]: > 1000 nM; IC50 [21]: > 1000 nM; IC50 [22]: > 1000 nM; IC50 [23]: > 1000 nM; inhibition [4]: Dose-dependent effect; inhibition [5]: inactive; AUC(0-t) at 24 h [8]: 61 ng·h/mL; bioavailability [9]: 12%; clearance [10]: 163 mL/min/kg
O=C(NCc1ccnc(Cl)c1)c1ccc2[nH]nc(-c3ccncc3)c2c1 | 22.5 | 9400 | 26.4 | 
Nc1cc(-c2n[nH]c3ccc(C(=O)NC(CO)c4cccc(Cl)c4)cc23)ccn1 (stereo unspecified) | 15.6 | 20900 | 66.9 | 
Cc1cc(-c2n[nH]c3ccc(C(=O)N[C@H](C)c4c(Cl)cccc4Cl)cc23)ccn1 | 632 | 10700 |  | 
O=C(NCc1cccc(Cl)c1)c1ccc2[nH]nc(-c3ccncc3)c2c1 | 12.6 | 2300 | 74.2 | 
O=C(NCCOc1ccccc1)c1ccc2[nH]nc(-c3ccncc3)c2c1 | 63.3 | 9100 |  | 
Cc1cc(-c2n[nH]c3ccc(C(=O)NC(CO)c4cccc(Cl)c4)cc23)ccn1 (stereo unspecified) | 17.9 | 2400 | 53.4 | 
CC(NC(=O)c1ccc2[nH]nc(-c3ccncc3)c2c1)c1cccc(Cl)c1 (stereo unspecified) | 53.1 | 900 | 154 | IC50 [11]: > 1000 nM; IC50 [12]: > 1000 nM; IC50 [13]: > 1000 nM; IC50 [14]: > 1000 nM; IC50 [15]: > 1000 nM; IC50 [16]: > 1000 nM; IC50 [17]: > 1000 nM; IC50 [18]: > 1000 nM; IC50 [19]: > 1000 nM; IC50 [20]: > 1000 nM; IC50 [21]: > 1000 nM; IC50 [22]: > 1000 nM; IC50 [23]: > 1000 nM
CC(NC(=O)c1ccc2[nH]nc(-c3ccncc3)c2c1)c1ccccc1Cl (stereo unspecified) | 16.7 | 3500 | 35.9 | 

Further lines, with some results ahead:

IC50 [1] [nM] | IC50 [2] [nM] | IC50 [3] [nM] | Structure (SMILES) | other results
276 | 6000 |  | O=C(NC(CO)c1cccc(Cl)c1)c1ccc2[nH]nc(-c3ccccc3)c2c1 (stereo unspecified) | 
61.1 | 3400 |  | O=C(NC(CO)c1cc(Cl)cc(Cl)c1)c1ccc2[nH]nc(-c3ccncc3)c2c1 (stereo unspecified) | 
25.8 | 900 |  | C[C@@H](NC(=O)c1ccc2[nH]nc(-c3ccncc3)c2c1)c1cccc(Cl)c1 | inhibition [4]: Dose-dependent effect; inhibition [5]: inactive; Fabs [6]: 100%; AUC(0-t) at 24 h [7]: 56 ng·h/mL
15.9 | 1600 |  | CC(C)Nc1cc(-c2c[nH]c(C(=O)N[C@H](CO)c3ccccc3)c2)c(Cl)cn1 | 
24.1 | 5500 | 72.4 | O=C(NC(CO)c1cccc(Cl)c1)c1ccc2[nH]nc(-c3ccncc3)c2c1 (stereo unspecified) | Fabs [6]: 69%
425 | 15300 |  | O=C(NCCc1cccc(Cl)c1)c1ccc2[nH]nc(-c3ccncc3)c2c1 | 
33.8 | 4500 | 42.9 | O=C(NCCCc1ccccc1)c1ccc2[nH]nc(-c3ccncc3)c2c1 | 
219 | 16500 | 833 | O=C(N[C@@H](CO)c1cccc(Cl)c1)c1ccc2[nH]nc(-c3ccncc3)c2c1 | 
9.5 | 480 | 19.4 | Cc1cc(-c2n[nH]c3ccc(C(=O)N[C@@H](C)c4c(Cl)cccc4Cl)cc23)ccn1 | 
139 | 6700 |  | O=C(NCCNc1ccccc1)c1ccc2[nH]nc(-c3ccncc3)c2c1 | 
19.4 | 3300 | 38.7 | O=C(NCCc1ccccc1)c1ccc2[nH]nc(-c3ccncc3)c2c1 | 
9.3 | 6100 | 55.5 | O=C(NCc1c(Cl)cncc1Cl)c1ccc2[nH]nc(-c3ccncc3)c2c1 | Fabs [6]: 99%
7.9 | 1100 | 16.7 | Cc1cc(-c2n[nH]c3ccc(C(=O)NCc4c(Cl)cnc(Cl)c4Cl)cc23)ccn1 | 
7 | 1900 | 26.3 | O=C(N[C@H](CO)c1cccc(Cl)c1)c1ccc2[nH]nc(-c3ccncc3)c2c1 | 
13.2 | 713 | 22.2 | Cc1cc(-c2n[nH]c3ccc(C(=O)NC(C)c4c(Cl)cnc(Cl)c4Cl)cc23)ccn1 (stereo unspecified) | inhibition [4]: Dose-dependent effect; inhibition [5]: inactive
226 | 10400 |  | Cc1cc(-c2n[nH]c3ccc(C(=O)NC(C)c4ccncc4)cc23)ccn1 (stereo unspecified) | 
58.9 | 1500 | 78.7 | CCC(NC(=O)c1ccc2[nH]nc(-c3ccncc3)c2c1)c1cccc(Cl)c1 (stereo unspecified) | 
> 2000 | 7100 |  | CC(C)CC(NC(=O)c1ccc2[nH]nc(-c3ccncc3)c2c1)c1cccc(Cl)c1 (stereo unspecified) | 
88.7 | 3700 |  | CC(CNC(=O)c1ccc2[nH]nc(-c3ccncc3)c2c1)OCc1ccccc1 (stereo unspecified) | 
